The values below come from US20250122218A1, “MODULATORS OF CYSTIC FIBROSIS TRANSMEMBRANE CONDUCTANCE REGULATOR” (Vertex Pharmaceuticals Incorporated, priority 2022, published 2025).

Structures are written as SMILES.

This experiment addresses T1, CFTR in F508del/MF-HBE cells (Homo sapiens, UniProt P13569, DEL508-508).
T1 construct: human bronchial epithelial (HBE) cells derived from CF subjects heterozygous for F508del and a minimal function CFTR mutation; endogenous in cells; host or cells: primary human bronchial epithelial cells from CF subjects (F508del/MF-HBE)
The experiment in a line: Ussing chamber assay of CFTR-mediated short-circuit currents (identification of potentiator compounds). Type of experiment: cell-based. To be noted: potentiator incubated 18-24 hours at 37° C. in combination with 10 μM corrector, in the presence of 20% human serum, CFTR-mediated ISC. As to the method: Ussing chamber experiments were performed using human bronchial epithelial (HBE) cells derived from CF subjects heterozygous for F508del and a minimal function CFTR mutation (F508del/MF-HBE) and cultured as previously described (Neuberger T, Burton B, Clark H, Van Goor F; Methods Mol. Biol. 2011:741:39-54). After four days the apical media was removed, and the cells were grown at an air liquid interface for >14 days prior to use.
To isolate the CFTR-mediated short-circuit (ISC) current, F508del/MF-HBE grown on Costar® Snapwell™ cell culture inserts were mounted in an Ussing chamber and the transepithelial ISC was measured under voltage-clamp recording conditions (Vhold=0 mV) at 37° C. The basolateral solution contained (in mM) 145 NaCl, 0.83 K2HPO4, 3.3 KH2PO4, 1.2 MgCl2, 1.2 CaCl2), 10 Glucose, 10 HEPES (pH adjusted to 7.4 with NaOH) and the apical solution contained (in mM) 145 NaGluconate, 1.2 MgCl2, 1.2 CaCl2), 10 glucose, 10 HEPES (pH adjusted to 7.4 with NaOH) and 30 μM amiloride to block the epithelial sodium channel. Forskolin (20 μM) was added to the apical surface to activate CFTR, followed by apical addition of a CFTR inhibitor cocktail consisting of BPO, GlyH-101 and CFTR inhibitor 172 (each at 20 μM final assay concentration) to specifically isolate CFTR currents. The CFTR-mediated ISC (μA/cm^2) for each condition was determined from the peak forskolin response to the steady-state current following inhibition.
The activity of the CFTR potentiator compounds on the CFTR-mediated ISC was determined in Ussing chamber studies as described above. The F508del/MF-HBE cell cultures were incubated with the potentiator compounds at a range of concentrations in combination with 10 μM (14S)-8-[3-(2-{dispiro[2.0.2.1]heptan-7-yl}ethoxy)-1H-pyrazol-1-yl]-12,12-dimethyl-2λ^6-thia-3,9,11,18,23-pentaazatetracyclo[17.3.1.111,14.05,10]tetracosa-1(22),5,7,9,19(23),20-hexaene-2,2,4-trione for 18-24 hours at 37° C. and in the presence of 20% human serum. The concentration of potentiator compounds and (14S)-8-[3-(2-{dispiro[2.0.2.1]heptan-7-yl}ethoxy)-1H-pyrazol-1-yl]-12,12-dimethyl-2λ^6-thia-3,9,11,18,23-pentaazatetracyclo[17.3.1.111,14.05,10]tetracosa-1(22),5,7,9,19(23),20-hexaene-2,2,4-trione used during the 18-24 hours incubations was kept constant throughout the Ussing chamber measurement of the CFTR-mediated ISC to ensure compounds were present throughout the entire experiment. The efficacy and potency of the putative F508del potentiators was compared to that of the known potentiator, ivacaftor (N-[2,4-bis(1,1-dimethylethyl)-5-hydroxyphenyl]-1,4-dihydro-4-oxoquinoline-3-carboxamide).

T1 sequence (P13569 with tags, fused parts or gaps DEL508-508): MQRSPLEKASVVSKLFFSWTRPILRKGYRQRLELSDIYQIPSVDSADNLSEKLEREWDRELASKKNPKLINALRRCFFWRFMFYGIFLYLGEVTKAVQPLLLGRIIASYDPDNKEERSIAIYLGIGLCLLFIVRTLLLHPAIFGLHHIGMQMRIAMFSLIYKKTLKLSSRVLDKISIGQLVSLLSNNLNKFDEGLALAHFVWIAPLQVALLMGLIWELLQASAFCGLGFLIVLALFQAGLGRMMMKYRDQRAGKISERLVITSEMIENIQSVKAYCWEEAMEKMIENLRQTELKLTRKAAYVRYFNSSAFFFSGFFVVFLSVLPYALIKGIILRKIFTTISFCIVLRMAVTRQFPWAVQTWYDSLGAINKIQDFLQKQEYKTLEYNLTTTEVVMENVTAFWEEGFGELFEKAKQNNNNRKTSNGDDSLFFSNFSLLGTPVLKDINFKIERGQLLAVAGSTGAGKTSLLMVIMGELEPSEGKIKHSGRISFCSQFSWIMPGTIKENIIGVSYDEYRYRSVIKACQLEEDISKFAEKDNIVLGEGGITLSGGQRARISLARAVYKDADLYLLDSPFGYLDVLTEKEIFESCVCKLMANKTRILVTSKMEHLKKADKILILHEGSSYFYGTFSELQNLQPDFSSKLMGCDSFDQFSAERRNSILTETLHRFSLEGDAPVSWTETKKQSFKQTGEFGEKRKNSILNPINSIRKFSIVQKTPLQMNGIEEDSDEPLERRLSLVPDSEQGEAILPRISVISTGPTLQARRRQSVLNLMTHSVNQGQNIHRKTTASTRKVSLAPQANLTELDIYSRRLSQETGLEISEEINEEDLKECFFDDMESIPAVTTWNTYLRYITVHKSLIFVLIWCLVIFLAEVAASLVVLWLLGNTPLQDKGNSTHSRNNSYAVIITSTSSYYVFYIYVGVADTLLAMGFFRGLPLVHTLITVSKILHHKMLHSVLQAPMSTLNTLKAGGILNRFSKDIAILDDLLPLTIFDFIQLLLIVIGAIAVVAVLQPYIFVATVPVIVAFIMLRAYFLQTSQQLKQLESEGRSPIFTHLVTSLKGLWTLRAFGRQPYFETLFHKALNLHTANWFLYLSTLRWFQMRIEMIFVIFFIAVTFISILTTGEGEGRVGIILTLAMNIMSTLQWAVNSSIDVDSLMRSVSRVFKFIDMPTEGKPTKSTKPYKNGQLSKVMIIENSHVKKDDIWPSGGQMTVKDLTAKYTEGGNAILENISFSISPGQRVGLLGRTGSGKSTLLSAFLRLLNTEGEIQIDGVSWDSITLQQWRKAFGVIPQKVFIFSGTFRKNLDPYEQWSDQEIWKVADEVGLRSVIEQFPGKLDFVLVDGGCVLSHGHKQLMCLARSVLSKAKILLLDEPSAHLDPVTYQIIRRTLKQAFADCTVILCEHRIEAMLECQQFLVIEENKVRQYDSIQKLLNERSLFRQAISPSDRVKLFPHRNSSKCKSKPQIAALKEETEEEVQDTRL

Regarding `Nc1cc(C(F)(F)F)c2nc1-c1nnc(o1)C(O)(C(F)(F)F)c1cc(ccc1F)CCCCC2=O` (single isomer, unassigned) [Compound 58, 20-amino-8-fluoro-6-hydroxy-6,18-bis(trifluoromethyl)-23-oxa-3,4,21-triazatetracyclo[15.3.1.12,5.17,11]tricosa-1(21),2,4,7(22),8,10,17,19-octaen-16-one], the EC50 (in general, the midpoint of the concentration-response curve) lay in the range of 500 to 1000 nM. On to `Nc1cc(C(F)(F)F)c2nc1-c1nnc(o1)C(O)(C(F)(F)F)c1cc(ccc1F)C=CCCC2=O` (single isomer, unassigned) [Compound 59, 20-amino-8-fluoro-6-hydroxy-6,18-bis(trifluoromethyl)-23-oxa-3,4,21-triazatetracyclo[15.3.1.12,5.17,11]tricosa-1(21),2,4,7(22),8,10,12,17,19-nonaen-16-one], for which the half-maximal effective concentration (EC50) was over 1000 nM. Under `Nc1cc(C(F)(F)F)c2nc1-c1nnc(o1)C(O)(C(F)(F)F)c1cc(ccc1F)C=CCCC2=O` (single isomer, unassigned) [Compound 60, 20-amino-8-fluoro-6-hydroxy-6,18-bis(trifluoromethyl)-23-oxa-3,4,21-triazatetracyclo[15.3.1.12,5.17,11]tricosa-1(21),2,4,7(22),8,10,12,17,19-nonaen-16-one] stands under 500 nM; under `N#CC1CCCCc2ccc(F)c(c2)C(O)(C(F)(F)F)C2=NN=C(O2)c2nc1c(C(F)(F)F)cc2N` (single isomer, unassigned) [Compound 67, 20-amino-8-fluoro-6-hydroxy-6,18-bis(trifluoromethyl)-23-oxa-3,4,21-triazatetracyclo[15.3.1.12,5.17,11]tricosa-1(21),2,4,7,9,11(22),17,19-octaene-16-carbonitrile], under 500 nM.

As to `N#CC1CCCCc2ccc(F)c(c2)C(O)(C(F)(F)F)C2=NN=C(O2)c2nc1c(C(F)(F)F)cc2N` (single isomer, unassigned) [Compound 68, 20-amino-8-fluoro-6-hydroxy-6,18-bis(trifluoromethyl)-23-oxa-3,4,21-triazatetracyclo[15.3.1.12,5.17,11]tricosa-1(21),2,4,7,9,11(22),17,19-octaene-16-carbonitrile], the EC50 was under 500 nM. The figure for `Nc1cc(C(F)(F)F)c2nc1-c1nnc(o1)C(F)(C(F)(F)F)CCCCCCC2=O` (single isomer, unassigned) [Compound 71, 17-amino-6-fluoro-6,15-bis(trifluoromethyl)-19-oxa-3,4,18-triazatricyclo[12.3.1.12,5]nonadeca-1(18),2,4,14,16-pentaen-13-one] is over 1000 nM.

Regarding `CN1CCCCCC(O)(C(F)(F)F)C2=NN=C(O2)c2nc(c(C(F)(F)F)cc2N)C1=O` (single isomer, unassigned) [Compound 72, 17-Amino-6-hydroxy-12-methyl-6,15-bis(trifluoromethyl)-19-oxa-3,4,12,18-tetrazatricyclo[12.3.1.12,5]nonadeca-1(18),2,4,14,16-pentaen-13-one], the half-maximal effective concentration (EC50) is under 500 nM. The figure for `CN1CCCCCC(O)(C(F)(F)F)C2=NN=C(O2)c2nc(c(C(F)(F)F)cc2N)C1=O` (single isomer, unassigned) [Compound 73, 17-amino-6-hydroxy-12-methyl-6,15-bis(trifluoromethyl)-19-oxa-3,4,12,18-tetrazatricyclo[12.3.1.12,5]nonadeca-1(18),2,4,14,16-pentaen-13-one] is over 1000 nM; for `Nc1cc(C(F)(F)F)c2nc1-c1nnc(o1)C(O)(C(F)(F)F)CCCCCN(Cc1ccccc1)C2=O` (single isomer, unassigned) [Compound 74, 17-Amino-12-benzyl-6-hydroxy-6,15-bis (trifluoromethyl)-19-oxa-3,4,12,18-tetrazatricyclo [12.3.1.12,5] nonadeca-1(18),2,4,14,1 6-pentaen-13-one] it is under 500 nM.

As to `Nc1cc(C(F)(F)F)c2nc1-c1nnc(o1)C(O)(C(F)(F)F)CCCCCN(C1CCC1)C2=O` (single isomer, unassigned) [Compound 78, 17-Amino-12-cyclobutyl-6-hydroxy-6,15-bis (trifluoromethyl)-19-oxa-3,4,12,18-tetrazatricyclo [12.3.1.12,5] nonadeca-1(18),2,4,14,1 6-pentaen-13-one], the half-maximal effective concentration (EC50) was under 500 nM.

As to `CC1(C)CCC2CCCC[C@](O)(C(F)(F)F)C3=NN=C(O3)c3nc(c(C(F)(F)F)cc3N)C(=O)N21` (single isomer, unassigned) [Compound 114], the EC50 is under 500 nM. Take `CC1(C)CCC2CCCC[C@](O)(C(F)(F)F)C3=NN=C(O3)c3nc(c(C(F)(F)F)cc3N)C(=O)N21` (single isomer, unassigned) [Compound 115]: the EC50 is under 500 nM. Under `N#Cc1cc(N)c2nc1C(=O)N(C1CC(F)(F)C1)CCCCCC(O)(C(F)(F)F)C1=NN=C2O1` (single isomer, unassigned) [Compound 197, 17-amino-12-(3,3-difluorocyclobutyl)-6-hydroxy-13-oxo-6-(trifluoromethyl)-19-oxa-3,4,12,18-tetrazatricyclo[12.3.1.12,5]nonadeca-1(18),2,4,14,16-pentaene-15-carbonitrile] stands over 1000 nM; under `Nc1cc(C(F)(F)F)c2nc1-c1nnc(o1)C(O)(C(F)(F)F)CCCCN(C1CC(F)(F)C1)C2=O` (single isomer, unassigned) [Compound 198, 16-amino-11-(3,3-difluorocyclobutyl)-6-hydroxy-6,14-bis(trifluoromethyl)-18-oxa-3,4,11,17-tetrazatricyclo[11.3.1.12,5]octadeca-1(17),2,4,13,15-pentaen-12-one], under 500 nM; under `Nc1cc(C(F)(F)F)c2nc1-c1nnc(o1)C(O)(C(F)(F)F)CCCCN(C1CC(F)(F)C1)C2=O` (single isomer, unassigned) [Compound 199, 16-amino-11-(3,3-difluorocyclobutyl)-6-hydroxy-6,14-bis(trifluoromethyl)-18-oxa-3,4,11,17-tetrazatricyclo[11.3.1.12,5]octadeca-1(17),2,4,13,15-pentaen-12-one], over 1000 nM. Take `Nc1cc(C(F)(F)F)c2nc1-c1nnc(o1)C(O)(C(F)(F)F)c1cc(ccc1F)CCCN(C1CC(F)(F)C1)C2=O` (single isomer, unassigned) [Compound 202, 20-amino-15-(3,3-difluorocyclobutyl)-8-fluoro-6-hydroxy-6,18-bis(trifluoromethyl)-23-oxa-3,4,15,21-tetraazatetracyclo [15.3.1.12,5.17,11] tricosa 1(21),2,4,7(22),8,10, 17,19-octaen-16-one]: the EC50 is under 500 nM.

As to `Nc1cc(C(F)(F)F)c2nc1-c1nnc(o1)C(O)(C(F)(F)F)c1cc(ccc1F)CCCN(C1CC(F)(F)C1)C2=O` (single isomer, unassigned) [Compound 203, 20-amino-15-(3,3-difluorocyclobutyl)-8-fluoro-6-hydroxy-6,18-bis(trifluoromethyl)-23-oxa-3,4,15,21-tetraazatetracyclo [15.3.1.12,5.17,11] tricosa 1(21),2,4,7(22),8,10, 17,19-octaen-16-one], the EC50 is under 500 nM. The figure for `CC(C)N1CCCCCC(O)(C(F)(F)F)C2=NN=C(O2)c2nc(c(C(F)(F)F)cc2N)C1=O` (single isomer, unassigned) [Compound 204, 17-amino-6-hydroxy-12-isopropyl-6,15-bis(trifluoromethyl)-19-oxa-3,4,12,18-tetrazatricyclo [12.3.1.12,5] nonadeca-1(18),2,4,14,16-pentaen-13-one] is under 500 nM.

With `CC(C)N1CCCCCC(O)(C(F)(F)F)C2=NN=C(O2)c2nc(c(C(F)(F)F)cc2N)C1=O` (single isomer, unassigned) [Compound 205, 17-amino-6-hydroxy-12-isopropyl-6,15-bis(trifluoromethyl)-19-oxa-3,4,12,18-tetrazatricyclo [12.3.1.12,5] nonadeca-1(18),2,4,14,16-pentaen-13-one], the EC50 is over 1000 nM.
